Measured values published in the Kinase Knowledgebase extract (Sharma et al. 2016).

Molecular target: MAPK14 (UniProt Q16539)
Assay: p38 Kinase Inhibition

MAPK14, sequence (Q16539 whole entry, looked up): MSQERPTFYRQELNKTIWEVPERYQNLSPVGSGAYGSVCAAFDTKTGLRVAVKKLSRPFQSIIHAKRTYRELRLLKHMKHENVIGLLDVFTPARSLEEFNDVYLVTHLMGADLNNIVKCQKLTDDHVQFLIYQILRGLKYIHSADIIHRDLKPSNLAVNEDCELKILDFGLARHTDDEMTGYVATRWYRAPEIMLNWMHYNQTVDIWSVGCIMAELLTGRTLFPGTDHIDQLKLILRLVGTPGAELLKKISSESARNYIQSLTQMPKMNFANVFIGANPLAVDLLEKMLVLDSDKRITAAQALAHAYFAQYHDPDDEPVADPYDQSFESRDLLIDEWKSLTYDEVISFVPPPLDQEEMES

SMILES | IC50 [µM]
Fc1ccc(-c2ncn(C3CCCCC3)c2-c2ccnc(NCCC(c3ccccc3)c3ccccc3)n2)cc1 | < 50
CC(C)n1cnc(-c2ccc(F)cc2)c1-c1ccnc(Nc2ccccc2)n1 | < 50
Fc1ccc(-c2ncn(C3CCCCC3)c2-c2ccnc(NCCc3c[nH]cn3)n2)cc1 | < 50
Fc1ccc(-c2ncn(C3CCCCC3)c2-c2ccnc(NCc3cccnc3)n2)cc1 | < 50
CCOCC(=O)NCCn1cnc(-c2ccc(F)cc2)c1-c1ccnc(NCc2ccc(OC)cc2)n1 | < 50
Fc1ccc(-c2ncn(-c3ccc(F)cc3)c2-c2ccnc(N3CCOC(Nc4ccccc4)C3)n2)cc1 (stereo not given) | < 50
CC(CCc1ccccc1)Nc1nccc(-c2c(-c3ccc(F)cc3)ncn2C2CCCCC2)n1 (stereo not given) | < 50
Cc1cccc(C)c1Nc1nccc(-c2c(-c3ccc(F)cc3)ncn2C2CCNCC2)n1 | < 50

Now from value to molecule:

IC50 [µM] | SMILES
< 50 | Cc1ccccc1Nc1nccc(-c2c(-c3ccc(F)cc3)ncn2-c2ccc(F)cc2)n1
< 50 | Cc1ccccc1Nc1nccc(-c2c(-c3ccc(F)cc3)ncn2C2CCNCC2)n1
< 50 | Fc1ccc(Nc2nccc(-c3c(-c4ccc(F)cc4)ncn3-c3ccc(F)cc3)n2)cc1
< 50 | Fc1ccc(-c2ncn(C3CCCCC3)c2-c2ccnc(NCCCN3CCOCC3)n2)cc1
< 50 | Fc1ccc(-c2ncn(-c3ccc(F)cc3)c2-c2ccnc(Nc3ccccc3)n2)cc1
< 50 | Cc1cc(F)ccc1Nc1nccc(-c2c(-c3ccc(F)cc3)ncn2C2CCN(C(=O)OC(C)(C)C)CC2)n1
< 50 | O=C(Nc1cccc(C(F)(F)F)c1)N1CCC(n2cnc(-c3ccc(F)cc3)c2-c2ccnc(Nc3ccccc3C(F)(F)F)n2)CC1
< 50 | COc1ccc(C(=O)NCCn2cnc(-c3ccc(F)cc3)c2-c2ccnc(NCc3ccc(Cl)c(Cl)c3)n2)cc1OC
< 50 | Fc1ccc(-c2ncn(C3CCCC3)c2-c2ccnc(Nc3ccccc3)n2)cc1
< 50 | Fc1ccc(-c2ncn(C3CCCCC3)c2-c2ccnc(Nc3ccccc3)n2)cc1
< 50 | Cc1cccc(C)c1Nc1nccc(-c2c(-c3ccc(F)cc3)ncn2-c2ccc(F)cc2)n1
< 50 | Cc1ccc(F)cc1Nc1nccc(-c2c(-c3ccc(F)cc3)ncn2C2CCNCC2)n1
